# According to PMC1978516, “The PDZ Domain as a Complex Adaptive System” (PLoS ONE, 2007):
# Ends that are not written are not given here.
# Legend:
# PSD95-PDZ3 [1] = experiment: phage ELISA on immobilized GST-PDZ fusion; assay type: binding; conditions: Fig. 1 and not shown
# Protocol: Binding histograms were obtained by individual phage ELISA performed on purified GST fusions of the indicated domains immobilized in micro-titer plate wells [40]. For accurate relative affinity evaluations and cross-domain comparison, the slopes of individual ELISA kinetics were determined and normalized by the highest slope value in each of the six sets shown. The 96th well in each set was loaded with a library aliquot to indicate background. Axis X indicates identification (i.d.) numbers of individual artificial ligands (see individual ligand sequences together with their i.d. numbers in Table S1). Axis Y indicates the normalized relative affinity. The domain organization of the PSD95 and SAP97 proteins is shown above histograms.
# GST fusion-coated microtiter ELISA plates (COSTAR) were prepared by passive immobilization of 1 µg of the indicated GST fusion proteins (Fig. 1) per well in 200 µl of 0.1M NaHCO3, pH 8.0, overnight at 4°C. Following protein coating, plates were blocked by adding 150 µl of 1% BSA in TBS for 1 hour at RT. Following incubation, the wells with immobilized target proteins were washed 5 (x1ml) times with TBS-T. One hundred µl of freshly prepared individual phage lysate was added to the ELISA plate wells and incubated for 1 hour at RT. Following incubation, unbound phages were washed away with TBS-T and the amount of retained phages was determined with polyclonal T7 phage-specific antibodies followed by monoclonal anti-rabbit antibodies conjugated to horseradish peroxidase (HRP) (Amersham Pharmacia). The individual phage ELISA kinetics were followed and quantified colorimetrically using soluble HRP substrate (ABTS/H2O2). ELISA readings were taken on a SpectraMAX190 plate reader (Molecular Devices) at 405 nm. To ensure reproducibility, each of the individual phage ELISA binding histograms presented was obtained at least three times in at least three separate experiments performed by two different experimenters.
# first PSD95 PDZ domain = conditions: cited from earlier work
# Excerpt: (§1) In order to gain insight into the pattern recognition differences of the PDZ domains that belong to the same class but are able to differentiate between peptide ligands sharing the class-defining C-terminal consensus, we investigated a particular case of this general puzzle, namely, the differences in recognition preferences between the second and third PDZ domains of PSD95, which are classified as type I PDZ domains but are known to discriminate between various X-(S/T)-X-(V/I/L)-COOH ligands, [18]. In Fig. 5A we compare two sets of C-terminal sequences. The first set represents the s ...
# second PSD95 PDZ domain = conditions: cited from earlier work
# Excerpt: as §1
# third PSD95 PDZ domain = conditions: cited from earlier work
# Excerpt: as §1
# SAP97-PDZ2 = experiment: peptide ELISA on immobilized GST-PDZ fusion; assay type: binding; conditions: Fig. 3
# Excerpt: (§2) Figure 3 Binding of 126 proteomic fragments (natural ligands) to six PDZ domains of PSD95 and SAP97. Binding histograms were obtained by peptide ELISA performed on purified GST fusions of the indicated domains immobilized in micro-titer plate wells as described previously. The X axis indicates the i.d. numbers of natural ligands (see Table S2). The Y axis indicates the peptide ELISA kinetics slope value in arbitrary units (a.u.). The 127th and 128th wells in each of the six sets were loaded with irrelevant peptides to indicate background signal. To illustrate internal consistency of the affinity evaluations obtained by peptide ELISA and their external consistency with the previously published affinity measurements, the reported affinities of the five PDZ domain-ligand pairs obtained by three different research groups using fluorescence polarization, [18], [32] are shown.
# (§3) Wells of microtiter plates were coated with 1 µg of the indicated GST-PDZ domain fusions, washed with TBS-T and blocked with 1% BSA in the same way as described above for phage ELISA. Individual biotinylated peptides (30 ng) were pre-incubated with 1 µg of streptavidin-HRP conjugate (Pierce) in 300 µl of TBS-T for 30 min at RT. One hundred µl of the peptide-streptavidin-HRP conjugate were added to 100 µl of TBS-T left in each coated well after the final wash of the protein immobilization/blocking procedure. Microtiter plates were incubated for 1 hour at RT, and then washed 5 (x1mL) times with TBS-T. The amounts of peptides retained were quantified colorimetrically by adding soluble HRP substrate (ABTS/H2O2) and measuring ELISA kinetic slopes. ELISA readings were taken on a SpectraMAX190 plate reader (Molecular Devices) at 405 nm. To ensure reproducibility, all peptide ELISA experiments presented were repeated at least three times in at least three separate experiments performed by two different experimenters.
# PSD95-PDZ2 = experiment: peptide ELISA on immobilized GST-PDZ fusion; assay type: binding; conditions: Fig. 3
# Excerpt: as §2, §3
# PSD95-PDZ3 [2] = experiment: peptide ELISA on immobilized GST-PDZ fusion; assay type: binding; conditions: Fig. 3
# Excerpt: as §2, §3
Substance,interaction with PSD95-PDZ3 in vitro (PSD95-PDZ3 [1]),interaction with the first PSD95 PDZ domain (first PSD95 PDZ domain),interaction with the second PSD95 PDZ domain (second PSD95 PDZ domain),interaction with the third PSD95 PDZ domain (third PSD95 PDZ domain),further results
TSGTKRSWYHSF> [compound 18],interacts selectively and with reasonable affinity,,,,
TTGKKRRWYHSF> [compound 19],interacts selectively and with reasonable affinity,,,,
VNIKKIFTDV-OH [Kv1.3],,bind,bind,fail to interact,
"IADESDPAESMESLV> [compound 017, N-terminally biotinylated 15-mer proteomic fragment, SWISS-PROT P23470, receptor-type tyrosine protein phosphatase gamma]",,,,,binding to the second PDZ domain of SAP97 (SAP97-PDZ2): bind to the second PDZ domains; binding to the second PDZ domain of PSD95 (PSD95-PDZ2): bind to the second PDZ domains; binding to the third PDZ domain of PSD95 (PSD95-PDZ3 [2]): not to their third PDZ domains
KKMPSIESDV-OH [NR2A],,bind,bind,fail to interact,
TRGTKRSWYYSF> [compound 20],interacts selectively and with reasonable affinity,,,,
"ALPDGNIAESLESLV> [compound 018, N-terminally biotinylated 15-mer proteomic fragment, SWISS-PROT P23471, receptor-type tyrosine protein phosphatase zeta]",,,,,binding to the second PDZ domain of SAP97 (SAP97-PDZ2): bind to the second PDZ domains; binding to the second PDZ domain of PSD95 (PSD95-PDZ2): bind to the second PDZ domains; binding to the third PDZ domain of PSD95 (PSD95-PDZ3 [2]): not to their third PDZ domains
VNITKMLTDV-OH [Kv1.2],,bind,bind,fail to interact,
VNKSKLLTDV-OH [Kv1.1],,bind,bind,fail to interact,
EKLSSIESDV-OH [NR2B],,bind,bind,fail to interact,
TRGTKRSWYHSF> [compound 17],interacts selectively and with reasonable affinity,,,,
